Literature values as cited in patent publication US8063249B1, “Substituted triphenyl butenes” (Olema Pharmaceuticals, Inc., priority 2008, dated 2011).
Read-outs that look alike come from different tables or passages of the source.

Columns and labels:
ER = conditions: for binding to the ER: statement in words, from the literature; for binding constants for the ER compared with estradiol: relative to estradiol, from Jordan, Steroids 2007
UGT 1A8 = molecular target: T1, UGT 1A8 (Homo sapiens, UniProt Q9HAW9)
T1 sequence (Q9HAW9 26-530): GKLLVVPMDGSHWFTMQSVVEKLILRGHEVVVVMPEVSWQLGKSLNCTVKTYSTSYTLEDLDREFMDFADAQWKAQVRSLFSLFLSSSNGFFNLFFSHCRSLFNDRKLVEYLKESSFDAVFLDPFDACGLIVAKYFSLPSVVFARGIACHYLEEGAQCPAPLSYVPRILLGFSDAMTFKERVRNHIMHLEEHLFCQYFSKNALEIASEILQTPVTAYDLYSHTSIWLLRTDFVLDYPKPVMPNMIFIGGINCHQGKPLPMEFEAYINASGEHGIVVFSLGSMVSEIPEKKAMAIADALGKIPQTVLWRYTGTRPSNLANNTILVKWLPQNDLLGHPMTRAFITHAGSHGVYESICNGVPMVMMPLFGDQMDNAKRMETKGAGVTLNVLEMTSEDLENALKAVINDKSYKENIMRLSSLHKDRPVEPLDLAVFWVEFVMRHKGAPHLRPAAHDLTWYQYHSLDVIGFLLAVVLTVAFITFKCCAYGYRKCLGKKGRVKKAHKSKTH

UGT 1A10 = molecular target: T2, UGT 1A10 (Homo sapiens, UniProt Q9HAW8)
T2 sequence (Q9HAW8 26-530): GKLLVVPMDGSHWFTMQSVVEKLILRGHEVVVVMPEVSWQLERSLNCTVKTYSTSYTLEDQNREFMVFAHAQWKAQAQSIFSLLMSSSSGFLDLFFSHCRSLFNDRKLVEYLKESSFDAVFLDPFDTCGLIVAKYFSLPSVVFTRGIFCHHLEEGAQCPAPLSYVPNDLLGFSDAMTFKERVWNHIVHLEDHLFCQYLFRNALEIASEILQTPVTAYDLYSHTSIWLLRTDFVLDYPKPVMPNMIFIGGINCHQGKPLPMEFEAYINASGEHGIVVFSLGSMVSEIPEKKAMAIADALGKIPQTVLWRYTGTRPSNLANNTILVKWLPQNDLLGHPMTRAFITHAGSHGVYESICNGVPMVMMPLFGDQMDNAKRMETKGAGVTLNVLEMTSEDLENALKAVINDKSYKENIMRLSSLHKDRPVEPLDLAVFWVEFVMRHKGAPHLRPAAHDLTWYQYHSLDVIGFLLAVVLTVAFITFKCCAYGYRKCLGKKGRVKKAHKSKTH

[1] = hydroxy group, from Sun et al. 2007

binding to the ER (ER) | substrate for O-glucuronidation by UGT 1A8 (UGT 1A8; [1]) | substrate for O-glucuronidation by UGT 1A10 (UGT 1A10; [1]) | binding constants for the ER compared with estradiol (ER) | substrate for O-glucuronidation by UGT 1A8 (UGT 1A8) | substrate for O-glucuronidation by UGT 1A10 (UGT 1A10) | Molecule
can no longer bind | – | – | – | – | – | CCC(=C(c1ccc(OCCNC)cc1)c1ccc(OC2OC(C(=O)O)C(O)C(O)C2O)cc1)c1ccccc1 (stereo not shown) [glucuronated endoxifen]
bind with high affinity | substrates for O-glucuronidation | substrates for O-glucuronidation | roughly equal to that of estradiol | – | – | CC/C(=C(\c1ccc(O)cc1)c1ccc(OCCNC)cc1)c1ccccc1 [endoxifen, 4-hydroxy N-desmethyl tamoxifen]
binds very poorly | – | – | – | – | – | CC/C(=C(\c1ccccc1)c1ccc(OCCN(C)C)cc1)c1ccccc1 [Tamoxifen, tamoxifen]
bind with high affinity | – | – | roughly equal to that of estradiol | substrates for O-glucuronidation | substrates for O-glucuronidation | 4-hydroxy tamoxifen
